# Patent US20250177340A1, “Tartaric Acid Analogs and Uses Thereof” (Lapix Therapeutics, Inc., priority 2021, published 2025)
# What was measured:
# PD-1 [1] = experiment: Percent PD-1+ T-cells in spleens, single dose on Day 7 (Examples 17, 19, 20); format: in vivo, C57BL6 mice; conditions: E 0.1, 0.25, 1 mg IV or 2.5 mg PO, F 0.03-1 mg IV or 1 mg PO, G 0.1, 0.4, 1 mg IV or 1 mg PO
# Experimental: (§1) Melanoma B16F10 cells were injected IV into C57BL6 mice on Day 0. On Day 7, mice were administered a single dose of 0.1 mg, 0.25 mg, or 1 mg of Compound E IV or 2.5 mg Compound E PO. One group was left untreated. Three mice at each time point were sacrificed, and their spleens were extracted. Percent KLRG1+ and PD-1^+ T-cells were quantified. Briefly, single-cell suspensions prepared from the extracted spleens were prepared and stained for KLRG1, PD-1 and CD8, and analyzed by flow cytometry.
# as §1, with “of 0.03 mg,” for “of”, “0.3 mg” for “0.25 mg,”, “mg” for “mg of”, “F” for “E”, “1” for “2.5”
# as §1, with “0.4” for “0.25”, “mg” for “mg of”, “G” for “E”, “1” for “2.5”
# KLRG-1 = experiment: Percent KLRG-1+/CD8+ T-cells in splenocytes after a single dose, melanoma murine model; format: in vivo, mice
# Experimental: (§2) The pharmacodynamic (PD) effects of a single IV dose of Compound B in a melanoma murine model were evaluated. B16F10 melanoma cells were grown in RPMI 1640 media supplemented with 10% FBS and antibiotics (penicillin/streptomycin) using T75 flasks. When cells reached 70-80% confluency, they were treated with 3 ml of 0.25% Trypsin/EDTA. Afterward, detached cells were harvested. A single-cell suspension was prepared in PBS. An IV injection of 10^5 cells in mice marked day −3 of the experiment.
# (§3) Animals were housed four per cage, and had access to food and water ad libitum. Compound B was dissolved in sterile PBS, and pH was adjusted to approximately 7.5. Sterile PBS served as control.
# (§4) Three days after the IV injection of melanoma cells, animals in the baseline group (n=3) were sacrificed and their spleens were collected for KLRG-1, CTLA-4, and PD-1 analysis. At each predetermined time-point (24, 48, and 120 hours after dosing) three animals from each group were sacrificed for splenocyte analysis of KLRG-1, CTLA-4, and PD-1 expression levels, and expression levels were compared to baseline.
# (§5) Spleens collected for splenocyte analysis were prepared into a single-cell suspension for cellular phenotyping by flow cytometry. Cells were stained and gated for CD8. Percent KLRG-1+, CTLA-4+, and PD-1+ CD8+ T-cells were evaluated using flow cytometry.
# (§6) The PD effects of a single IV dose of Compound C were evaluated in a melanoma murine model conducted as described in Example 10. […] This study also evaluated whether Compound C was pharmacodynamically active orally.
# (§7) In a prior study, Compound C was dosed at 1 mg IV QD for seven days. […] A single PO dose was chosen to confirm oral activity of Compound C. Compound C was dissolved in DMSO, and then diluted in sterile PBS. pH was adjusted to approximately 7.5.
# (§8) The oral and intravenous PD effects of a single dose of Compound E were evaluated in a melanoma murine model conducted as described in Example 10.
# (§9) Compound E was dissolved in DMSO, and then diluted in sterile PBS. pH was adjusted to approximately 7.5.
# Oral bioavailability = format: in vivo; conditions: mouse, in vivo; suggested from 2.5 mg oral dose as efficacious as 0.25 mg IV; not evaluated in a PK study
# PD-1 [2] = experiment: Percent PD-1+/CD8+ T-cells in splenocytes after a single dose, melanoma murine model; format: in vivo, mice
# Experimental: as §2, §3, §4, §5, §6, §7, §8, §9
# KLRG1 = experiment: Percent KLRG1+ T-cells in spleens, single dose on Day 7 (Examples 17, 19, 20); format: in vivo, C57BL6 mice
# Experimental: as §1
# as §1, with “of 0.03 mg,” for “of”, “0.3 mg” for “0.25 mg,”, “mg” for “mg of”, “F” for “E”, “1” for “2.5”
# as §1, with “0.4” for “0.25”, “mg” for “mg of”, “G” for “E”, “1” for “2.5”
# B16 F10 melanoma cells = experiment: Tumor growth inhibition using Compound E (Example 18); format: in vivo, C57BL/6 mice; conditions: 0.3 or 3 mg orally daily for seven days
# Experimental: C57BL/6 mice received 10^5 B16 F10 melanoma cells via SC injection on day 0. At day 7, mice were treated orally with Compound E at 0.3 or 3 mg daily for seven days. Tumor growth inhibition was monitored until all untreated animals reached end point, defined as death by disease (found dead in the cage) or tumor size of 1,000 mm^3 or greater.
# Granzyme B and IFN-γ = experiment: Dose-response of GranzymeB/IFN-γ double positivity in murine CD8+ T-cells, Example 9; format: cell-based, C57BL/6 mice; conditions: Mus musculus, T-cell
# Experimental: A dose-response analysis of compounds B-E in murine CD8+ T-cells was conducted to evaluate the effect of dose on GranzymeB/IFN-γ double positivity.
# Compound C, D and E were first dissolved in a small volume of DMSO before diluting to the final desired concentration.
# Splenocytes from naïve C57BL/6 mice were stained with CFSE, prepared, cultured, and dosed. Cells were seeded at 2×10^5 cells/well. Negative control was dosed with 10 ng/ml IL-2. After ConA stimulation (10 μg/ml), cells were dosed with log 3 dilution of each compound from 3×10^−9 to 30 µM in triplicates. All wells were dosed with 10 ng/ml of IL-2.
# Flow cytometer analysis was performed to assess percent CD8+ T-cells and percent activation by double staining for Granzyme B (GzmB) and IFN-γ as described in Example 7. Concentration versus response curve was fitted to a 4- or 5-parameter log-logistic model using the “dre” package in “R”. Both EC50 and EC90 were obtained by model fitting.
# [3] = 0.1 mg/mouse IV single dose, 24 h
# [4] = 0.1 mg/mouse IV single dose, 48 h
# [5] = 0.1 mg/mouse IV single dose, 120 h
# [6] = 0.25 mg/mouse IV single dose, 24 h
# [7] = 0.25 mg/mouse IV single dose, 48 h
# [8] = 0.25 mg/mouse IV single dose, 120 h
# [9] = 1 mg/mouse IV single dose, 24 h
# [10] = 1 mg/mouse IV single dose, 48 h
# [11] = 1 mg/mouse IV single dose, 120 h
# [12] = 2.5 mg/mouse po single dose, 24 h
# [13] = 2.5 mg/mouse po single dose, 48 h
# [14] = 2.5 mg/mouse po single dose, 120 h
smiles,measurement,setting,value
"O=C(O)[C@H](O)[C@@H](O)C(=O)NCCC(c1ccccc1)c1ccccc1 [Compound E, (2R,3R)-4-((3,3-diphenylpropyl)amino)-2,3-dihydroxy-4-oxobutanoic acid]",percent PD1+ T-cells compared to untreated animals,PD-1 [1],reduction
same,"KLRG-1+/CD8+ T-cells, mean",KLRG-1; [3],0.7%
same,"KLRG-1+/CD8+ T-cells, mean",KLRG-1; [4],1.2%
same,"KLRG-1+/CD8+ T-cells, mean",KLRG-1; [5],1.0%
same,"KLRG-1+/CD8+ T-cells, mean",KLRG-1; [6],0.6%
same,"KLRG-1+/CD8+ T-cells, mean",KLRG-1; [7],0.9%
same,"KLRG-1+/CD8+ T-cells, mean",KLRG-1; [8],0.6%
same,"KLRG-1+/CD8+ T-cells, mean",KLRG-1; [9],1.3%
same,"KLRG-1+/CD8+ T-cells, mean",KLRG-1; [10],0.6%
same,"KLRG-1+/CD8+ T-cells, mean",KLRG-1; [11],1.2%
same,oral pharmacodynamic activity,KLRG-1; 2.5 mg PO single dose,effective after oral administration
same,"KLRG-1+/CD8+ T-cells, mean",KLRG-1; [12],0.6%
same,"KLRG-1+/CD8+ T-cells, mean",KLRG-1; [13],1.9%
same,"KLRG-1+/CD8+ T-cells, mean",KLRG-1; [14],1.2%
same,time of nadir of exhaustion markers after dosing,"KLRG-1; single dose, KLRG-1, CTLA-4, PD-1",24 h
same,bioavailability,Oral bioavailability,≥ 10%
same,"PD-1+/CD8+ T-cells, mean",PD-1 [2]; [3],35%
same,"PD-1+/CD8+ T-cells, mean",PD-1 [2]; [4],26%
same,"PD-1+/CD8+ T-cells, mean",PD-1 [2]; [5],37%
same,"PD-1+/CD8+ T-cells, mean",PD-1 [2]; [6],23%
same,"PD-1+/CD8+ T-cells, mean",PD-1 [2]; [7],26%
same,"PD-1+/CD8+ T-cells, mean",PD-1 [2]; [8],32%
same,"PD-1+/CD8+ T-cells, mean",PD-1 [2]; [9],23%
same,"PD-1+/CD8+ T-cells, mean",PD-1 [2]; [10],30%
same,"PD-1+/CD8+ T-cells, mean",PD-1 [2]; [11],29%
same,"PD-1+/CD8+ T-cells, mean",PD-1 [2]; [12],25%
same,"PD-1+/CD8+ T-cells, mean",PD-1 [2]; [13],32%
same,"PD-1+/CD8+ T-cells, mean",PD-1 [2]; [14],30%
same,decrease from baseline in PD-1+/CD8+ T-cell,"PD-1 [2]; single dose, 0.25 mg or higher, 24 hours",approximately 39%
same,"activity after oral administration (KLRG1+, PD1+ T-cells)","KLRG1; single PO dose: E 2.5 mg, F 1 mg, G 1 mg",effective after oral administration
same,percent KLRG1+ T-cells compared to untreated animals,"KLRG1; single dose, E 0.1, 0.25, 1 mg IV or 2.5 mg PO, F 0.03-1 mg IV or 1 mg PO, G 0.1, 0.4, 1 mg IV or 1 mg PO",reduction
same,tumor growth,B16 F10 melanoma cells,dose-dependent inhibition of tumor growth
same,EC50,Granzyme B and IFN-γ; 4-parameter model,93 nM
same,EC90,Granzyme B and IFN-γ; 4-parameter model,120000 nM
same,EC50,Granzyme B and IFN-γ; 5-parameter model,23 nM
same,EC90,Granzyme B and IFN-γ; 5-parameter model,600 nM
same,Emax,"Granzyme B and IFN-γ; FIG. 4, 5-parameter fit, read-out: maximal response (GzmB/IFN-γ double positive CD8+ T-cells)",~60%
